From ChEMBL document CHEMBL1133225
Activity calls are given as the source filed them. The rule behind the calls is not given here.

Assays:
[1] = biological target: Acetylcholinesterase (Electrophorus electricus) (UniProt O42275); assay: Compound was tested against electric eel Acetylcholinesterase; Inactive
[2] = biological target: T1, Acetylcholinesterase (Mus musculus) (UniProt P21836); assay: Compound was tested against recombinant mouse Acetylcholinesterase; 5-40 uM, Modest inhibition
T1 sequence (whole entry): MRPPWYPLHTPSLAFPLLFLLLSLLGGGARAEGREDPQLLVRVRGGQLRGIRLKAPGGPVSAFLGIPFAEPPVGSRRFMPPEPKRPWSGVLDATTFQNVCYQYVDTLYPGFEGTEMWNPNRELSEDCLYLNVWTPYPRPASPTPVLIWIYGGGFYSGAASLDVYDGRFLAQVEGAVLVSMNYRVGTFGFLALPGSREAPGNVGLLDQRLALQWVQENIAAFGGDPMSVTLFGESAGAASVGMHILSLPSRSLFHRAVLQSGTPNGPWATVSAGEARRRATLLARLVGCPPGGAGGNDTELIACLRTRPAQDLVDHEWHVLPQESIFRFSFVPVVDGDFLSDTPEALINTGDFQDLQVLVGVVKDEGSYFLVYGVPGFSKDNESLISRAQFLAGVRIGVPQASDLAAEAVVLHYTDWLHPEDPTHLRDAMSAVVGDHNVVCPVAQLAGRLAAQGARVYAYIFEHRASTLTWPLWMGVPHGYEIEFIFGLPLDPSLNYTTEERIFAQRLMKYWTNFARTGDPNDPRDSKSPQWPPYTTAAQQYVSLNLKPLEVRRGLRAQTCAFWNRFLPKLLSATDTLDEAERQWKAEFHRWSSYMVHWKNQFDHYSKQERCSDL

Chain of Acetylcholinesterase (Electrophorus electricus) (O42275 24-633 limits assumed): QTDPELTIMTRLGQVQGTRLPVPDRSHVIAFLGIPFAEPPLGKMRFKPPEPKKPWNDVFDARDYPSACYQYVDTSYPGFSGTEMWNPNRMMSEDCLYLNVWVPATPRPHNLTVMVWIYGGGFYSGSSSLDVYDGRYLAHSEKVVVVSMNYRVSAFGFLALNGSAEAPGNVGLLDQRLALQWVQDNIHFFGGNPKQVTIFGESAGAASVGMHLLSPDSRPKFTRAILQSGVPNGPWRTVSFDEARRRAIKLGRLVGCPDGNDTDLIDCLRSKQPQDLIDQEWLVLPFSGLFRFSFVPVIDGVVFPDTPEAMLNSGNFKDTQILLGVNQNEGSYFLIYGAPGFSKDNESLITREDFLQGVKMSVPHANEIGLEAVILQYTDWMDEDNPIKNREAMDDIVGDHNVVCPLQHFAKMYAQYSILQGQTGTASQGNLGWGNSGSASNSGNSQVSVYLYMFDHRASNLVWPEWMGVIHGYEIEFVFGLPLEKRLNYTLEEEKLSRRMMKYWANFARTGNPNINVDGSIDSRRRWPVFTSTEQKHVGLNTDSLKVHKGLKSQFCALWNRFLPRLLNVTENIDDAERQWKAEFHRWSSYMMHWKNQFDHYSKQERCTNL

COP(=O)(CC(=O)N[C@@H](CCCCNS(=O)(=O)c1ccc2ccc3cccc4ccc1c2c34)C(N)=O)OC
Activity [1]: inactive
Concentration [2]: 40 µM

COP(=O)(CC(=O)N[C@@H](CCCCNS(=O)(=O)c1ccc2ccc3cccc4ccc1c2c34)C(N)=O)SC (some centres undefined)
Activity [1]: inactive
Concentration [2]: 40 µM
